Reference: patent US20250288704A1, “CXCR4-LIGANDS FOR DIAGNOSTIC AND THERAPEUTIC USE AND PRECURSORS THEREOF” (priority 2021, published 2025)
Like-named read-outs stand apart in the source and are kept apart here. Starred links: 1 amine or outer side, 2 acyl side, 3 side chain; linkers in the order of their positions; H or OH if unused. Positions of bridges follow the written chain, without caps; N, C: chain ends. Non-standard residues stand in square brackets, D forms with d. Residues, ends and D or L forms follow the SMILES beside them. Groups on a side chain read outwards from the residue. Chains are numbered I, II in the order given. *: point of attachment. X7 = O=C(O)CN1CCN(CC(=O)O)CCN([C@H](CCC(=O)*)C(=O)O)CCN(CC(=O)O)CC1; Benzoyl(4-SiFtBu2) = CC(C)(C)[Si](F)(c1ccc(C(=O)*)cc1)C(C)(C)C; DOTA = O=C(O)CN1CCN(CC(=O)O)CCN(CC(=O)*)CCN(CC(=O)O)CC1; Dolaproine = CO[C@@H]([C@@H]1CCCN1)[C@@H](C)C(=O)O; Dil = CC[C@H](C)[C@H](NC)[C@@H](CC(=O)O)OC; d(γGlu) = O=C(O)[C@@H](CCC(=O)[*:2])N[*:1]; X11 = O=C1CC([*:2])C(=O)N1CCCCCC(=O)[*:1]; dTyr(3-I) = N[C@H](Cc1ccc(O)c(I)c1)C(=O)O; 2Nal = N[C@@H](Cc1ccc2ccccc2c1)C(=O)O; PABC = O=C(OCc1ccc(N[*:1])cc1)[*:2]; X10 = C[C@@H](N*)[C@@H](O)c1ccccc1; dCit = NC(=O)NCCC[C@@H](N)C(=O)O; Cit = NC(=O)NCCC[C@H](N)C(=O)O; dNMeOrn = CN[C@H](CCCN)C(=O)O; NMeV = CN[C@H](C(=O)O)C(C)C; d(hCys) = N[C@H](CCS)C(=O)O; Mercaptoacetyl = O=C(CS)*; 4Abz = Nc1ccc(C(=O)O)cc1; dDap = NC[C@@H](N)C(=O)O; CO = O=C([*:1])[*:2]; Ahx = NCCCCCC(=O)O

Legend:
[1] = biological target: CXCR4 (Homo sapiens, UniProt P61073); assay: Determination of IC50: competition with 125I-Fc-131 on CXCR4-positive Jurkat cells; assay type: binding; design: CXCR4-positive Jurkat T lymphocyte cells were grown in Gibco's RPMI 1640 GlutaMAX medium; endogenous in cells; host or cells: Jurkat T lymphocyte cells (whole cells in suspension, 400.000 per tube);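 further: test compound at 10^−5 to 10^−11 M competed for 2 h at 8 °C with the radioligand on 400,000 cells per well, bound versus free activity measured by γ-counting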
[2] = Octanol/PBS partition coefficient (logD7.4); assay type: physicochemical; conditions: n-octanol/PBS pH 7.4, radiolabeled compound
Method: The tubes were vortexed at maximum speed for 3 min to ensure equilibrium before centrifugation at 15.000×g for 5 min on a Biofuge 15 from Heraeus Holding GmbH (Osterode, Germany). An aliquot of 100 μL of each fraction was measured in the γ-counter and the log D7.4 calculated as follows: […]

[3] = Biodistribution in Jurkat tumor-bearing CB-17 SCID mice; assay type: in vivo; conditions: female, CB-17 SCID, mouse, in vivo, iv, total radioactivity, 1 h p.i., Jurkat xenograft, CB-17 SCID female mice
Method: All animal experiments were conducted in accordance with general animal welfare regulations in Germany and the institutional guidelines for the care and use of animals. To establish tumor xenografts, Jurkat cells (2-3×10^7 cells) were suspended in a mixture of Gibco's RPMI 1640 medium and Matrigel (1/1; v/v) from BD Biosciences (Heidelberg, Germany), and inoculated subcutaneously onto the right shoulder of 6-10 weeks old CB17-SCID mice from either Charles River GmbH (Sulzfeld, Germany) or the in-house mouse breeding facility. Mice were used when tumors had grown to a diameter of 5-8 mm (4-10 weeks after inoculation).
Approximately 0.5-20 MBq (0.02-0.20 nmol) of the ^125I-, ^177Lu-, ^99mTc-, ^18F- or ^68Ga-labeled ligand were injected into the tail vein of Jurkat tumor-bearing CB-17 SCID mice and the animals sacrificed after the respective biodistribution time. Selected organs were removed, weighted and measured in a γ-counter.

[4] = unlabeled or cold (natGa/natLu) compound vs 125I-Fc-131, Jurkat cells, read-out: IC50

Sequence of CXCR4 (P61073 whole entry): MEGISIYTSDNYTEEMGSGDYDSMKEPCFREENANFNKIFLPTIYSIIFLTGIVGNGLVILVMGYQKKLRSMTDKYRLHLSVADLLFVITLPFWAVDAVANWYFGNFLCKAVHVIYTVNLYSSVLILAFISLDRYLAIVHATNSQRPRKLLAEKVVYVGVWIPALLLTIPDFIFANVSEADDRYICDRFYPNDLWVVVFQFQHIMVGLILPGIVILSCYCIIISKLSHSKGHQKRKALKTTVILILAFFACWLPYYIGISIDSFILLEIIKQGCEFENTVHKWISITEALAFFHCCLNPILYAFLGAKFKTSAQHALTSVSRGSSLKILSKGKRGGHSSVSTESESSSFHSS

`C[C@@H](NC(=O)[C@@H](CCCNC(=N)N)NC(=O)[C@@H](CN)NC(=O)CN1CCN(CC(=O)O)CCN(CC(=O)O)CCN(CC(=O)O)CC1)C(=O)Nc1ccc(C(=O)NCCC[C@@H]2C(=O)N[C@@H](CCCNC(=N)N)C(=O)N[C@@H](Cc3ccc4ccccc4c3)C(=O)NCC(=O)N[C@H](Cc3ccc(O)cc3)C(=O)N2C)cc1` [CXCR4-DOTA-3] (cyclo([dY][dNMeOrn]([4Abz-dA-dR-dDap-DOTA])R[2Nal]G)) showed an IC50 [1, 4] of 0.00316 ± 0.00063 µM.

Compound `C[C@@H](NC(=O)[C@@H](CCCNC(=N)N)NC(=O)[C@@H](CN)NC(=O)CN1CCN(CC(=O)O)CCN(CC(=O)O)CCN(CC(=O)O)CC1)C(=O)Nc1ccc(C(=O)NCCC[C@@H]2C(=O)N[C@@H](CCCNC(=N)N)C(=O)N[C@@H](Cc3ccc4ccccc4c3)C(=O)NCC(=O)N[C@H](Cc3ccc(O)c(I)c3)C(=O)N2C)cc1` [CXCR4-DOTA-4] (cyclo([dTyr(3-I)][dNMeOrn]([4Abz-dA-dR-dDap-DOTA])R[2Nal]G)) has an IC50 [1, 4] of 0.00464 ± 0.00096 µM.

Work on `C[C@@H](NC(=O)[C@@H](CCCNC(N)=O)NC(=O)[C@@H](CN)NC(=O)CN1CCN(CC(=O)O)CCN(CC(=O)O)CCN(CC(=O)O)CC1)C(=O)Nc1ccc(C(=O)NCCC[C@@H]2C(=O)N[C@@H](CCCNC(=N)N)C(=O)N[C@@H](Cc3ccc4ccccc4c3)C(=O)NCC(=O)N[C@H](Cc3ccc(O)cc3)C(=O)N2C)cc1` [CXCR4-DOTA-5] (cyclo([dY][dNMeOrn]([4Abz-dA-dCit-dDap-DOTA])R[2Nal]G)) yielded an IC50 [1, 4] of 0.0213 ± 0.00664 µM.

`CC[C@H](C)[C@@H]([C@@H](CC(=O)N1CCC[C@H]1[C@H](OC)[C@@H](C)C(=O)N[C@H](C)C(O)c1ccccc1)OC)N(C)C(=O)[C@@H](NC(=O)[C@H](C(C)C)N(C)C(=O)OCc1ccc(NC(=O)[C@H](CCCNC(N)=O)NC(=O)[C@@H](NC(=O)CCCCCN2C(=O)CC(SC[C@@H](N)C(=O)NC(CCCNC(=N)N)C(=O)N[C@H](C)C(=O)Nc3ccc(C(=O)NCCC[C@@H]4C(=O)N[C@@H](CCCNC(=N)N)C(=O)N[C@H](Cc5ccc6ccccc6c5)C(=O)NCC(=O)N[C@@H](Cc5ccc(O)cc5)C(=O)N4C)cc3)C2=O)C(C)C)cc1)C(C)C` (stereo partly shown) [CXCR4-MMAE-1] showed an IC50 [1] of 0.0998 ± 0.00755 µM.

In the case of `CC[C@H](C)[C@@H]([C@@H](CC(=O)N1CCC[C@H]1[C@H](OC)[C@@H](C)C(=O)N[C@H](C)[C@@H](O)c1ccccc1)OC)N(C)C(=O)[C@@H](NC(=O)[C@H](C(C)C)N(C)C(=O)OCc1ccc(NC(=O)[C@H](CCCNC(N)=O)NC(=O)[C@@H](NC(=O)CCCCCN2C(=O)CC(SCC[C@@H](NC(C)=O)C(=O)N[C@H](CNC(=O)CC[C@H](C(=O)O)N3CCN(CC(=O)O)CCN(CC(=O)O)CCN(CC(=O)O)CC3)C(=O)NCCCCCC(=O)N[C@H](CN)C(=O)N[C@H](CCCNC(=N)N)C(=O)N[C@H](C)C(=O)Nc3ccc(C(=O)NCCC[C@@H]4C(=O)N[C@@H](CCCNC(=N)N)C(=O)N[C@@H](Cc5ccc6ccccc6c5)C(=O)NCC(=O)N[C@H](Cc5ccc(O)cc5)C(=O)N4C)cc3)C2=O)C(C)C)cc1)C(C)C` (stereo partly shown) [CXCR4-MMAE-4] (I: V[Cit][PABC][NMeV]V[Dil][Dolaproine]-X10 / II: Ac-[d(hCys)][dDap](X7)[Ahx][dDap][dR][dA][4Abz] / III: cyclo([2Nal]G[dY][dNMeOrn]R); linker I:N-II:1 via X11; amide II:C-III:4), the IC50 [1] is reported as 0.113 ± 0.02 µM and the logD7.4 [2] is reported as −1.04 ± 0.07 (8).

In the case of `C[C@@H](NC(=O)[C@@H](CCCNC(=N)N)NC(=O)[C@@H](CN)NC(=O)[C@@H](CNC(=O)CC[C@H](C(=O)O)N1CCN(CC(=O)O)CCN(CC(=O)O)CCN(CC(=O)O)CC1)NC(=O)[C@@H](CNC(=O)c1ccc([Si](F)(C(C)(C)C)C(C)(C)C)cc1)NC(=O)CC[C@@H](NC(=O)N[C@H](CCC(=O)O)C(=O)O)C(=O)O)C(=O)Nc1ccc(C(=O)NCCC[C@@H]2C(=O)N[C@@H](CCCNC(=N)N)C(=O)N[C@@H](Cc3ccc4ccccc4c3)C(=O)NCC(=O)N[C@H](Cc3ccc(O)cc3)C(=O)N2C)cc1` [CXCR4-SiFA-4 [Lu]] (I: {dE-CO-d(γGlu)}-[dDap](Benzoyl(4-SiFtBu2))[dDap](X7)[dDap][dR][dA][4Abz] / II: cyclo([dY][dNMeOrn]R[2Nal]G); amide I:C-II:2), the IC50 ([1]; unlabeled or cold (natGa/natLu) compound vs 125I-Fc-131, Jurkat cells) is reported as 0.0934 ± 0.0102 µM and the logD7.4 [2] is reported as −1.71 ± 0.09 (8).

With `C[C@@H](NC(=O)[C@@H](CCCNC(=N)N)NC(=O)[C@@H](C)NC(=O)[C@@H](CO)NC(=O)[C@@H](CO)NC(=O)[C@@H](CO)NC(=O)CS)C(=O)Nc1ccc(C(=O)NCCC[C@@H]2C(=O)N[C@@H](CCCNC(=N)N)C(=O)N[C@@H](Cc3ccc4ccccc4c3)C(=O)NCC(=O)N[C@H](Cc3ccc(O)cc3)C(=O)N2C)cc1` [Tc-CXCR4-2] (I: Mercaptoacetyl-[dS][dS][dS][dA][dR][dA][4Abz] / II: cyclo([dY][dNMeOrn]R[2Nal]G); amide I:C-II:2) the IC50 [1] was 0.0324 ± 0.0099 µM.

For `C[C@@H](NC(=O)[C@@H](CCCNC(=N)N)NC(=O)[C@@H](CCCNC(=N)N)NC(=O)[C@@H](CO)NC(=O)[C@@H](CO)NC(=O)[C@@H](CO)NC(=O)CS)C(=O)Nc1ccc(C(=O)NCCC[C@@H]2C(=O)N[C@@H](CCCNC(=N)N)C(=O)N[C@@H](Cc3ccc4ccccc4c3)C(=O)NCC(=O)N[C@H](Cc3ccc(O)cc3)C(=O)N2C)cc1` [Tc-CXCR4-3] (I: Mercaptoacetyl-[dS][dS][dS][dR][dR][dA][4Abz] / II: cyclo([dY][dNMeOrn]R[2Nal]G); amide I:C-II:2), the IC50 [1] was 0.184 ± 0.0253 µM.

`C[C@@H](NC(=O)[C@@H](CCCNC(=N)N)NC(=O)[C@@H](Cc1ccccc1)NC(=O)[C@@H](CO)NC(=O)[C@@H](CO)NC(=O)[C@@H](CO)NC(=O)CS)C(=O)Nc1ccc(C(=O)NCCC[C@@H]2C(=O)N[C@@H](CCCNC(=N)N)C(=O)N[C@@H](Cc3ccc4ccccc4c3)C(=O)NCC(=O)N[C@H](Cc3ccc(O)cc3)C(=O)N2C)cc1` [Tc-CXCR4-4] (I: Mercaptoacetyl-[dS][dS][dS][dF][dR][dA][4Abz] / II: cyclo([dY][dNMeOrn]R[2Nal]G); amide I:C-II:2) showed an IC50 [1] of 3.49 ± 0.502 µM.

Work on `C[C@@H](NC(=O)[C@@H](CCCNC(=N)N)NC(=O)[C@@H](Cc1c[nH]cn1)NC(=O)[C@@H](CO)NC(=O)[C@@H](CO)NC(=O)[C@@H](CO)NC(=O)CS)C(=O)Nc1ccc(C(=O)NCCC[C@@H]2C(=O)N[C@@H](CCCNC(=N)N)C(=O)N[C@@H](Cc3ccc4ccccc4c3)C(=O)NCC(=O)N[C@H](Cc3ccc(O)cc3)C(=O)N2C)cc1` [Tc-CXCR4-5] (I: Mercaptoacetyl-[dS][dS][dS][dH][dR][dA][4Abz] / II: cyclo([dY][dNMeOrn]R[2Nal]G); amide I:C-II:2) yielded a tissue uptake at 1 h ([3]; Adrenal, read-out: % iD/g Adrenal) of 0.42 %ID/g, a tissue uptake at 1 h ([3]; Blood, read-out: % iD/g Blood) of 0.65 %ID/g and a tissue uptake at 1 h ([3]; Bone, read-out: % iD/g Bone) of 1.55 %ID/g. For the same compound, the tissue uptake at 1 h ([3]; Heart, read-out: % iD/g Heart) was 0.48 %ID/g, the tissue uptake at 1 h ([3]; Intestine, read-out: % iD/g Intestine) was 0.76 %ID/g and the tissue uptake at 1 h ([3]; Kidney, read-out: % iD/g Kidney) was 2.89 %ID/g. For the same compound, the tissue uptake at 1 h ([3]; Liver, read-out: % iD/g Liver) was 2.42 %ID/g, the tissue uptake at 1 h ([3]; Lung, read-out: % iD/g Lung) was 1.57 %ID/g and the tissue uptake at 1 h ([3]; Muscle, read-out: % iD/g Muscle) was 0.15 %ID/g. It also gave a tissue uptake at 1 h ([3]; Pancreas, read-out: % iD/g Pancreas) of 0.4 %ID/g, a tissue uptake at 1 h ([3]; Spleen, read-out: % iD/g Spleen) of 8.47 %ID/g and a tissue uptake at 1 h ([3]; Stomach, read-out: % iD/g Stomach) of 0.7 %ID/g. It also gave a tissue uptake at 1 h ([3]; Tumor, read-out: % iD/g Tumor) of 1.48 %ID/g and an IC50 [1] of 0.011 ± 0.0013 µM.
